Measured values reported in patent US11078496B2, “System for F-box hormone receptor regulated protein expression in mammalian cells” (ICAHN SCHOOL OF MEDICINE AT MOUNT SINAI, priority 2016, dated 2021).

Tested on: CCE A-CHK1 clone #2 cells
Assay: Competition assay of A-CHK1 clone #2 cells against GFP-A CCE cells
Assay type: cell-based, mouse
Conditions: 50 μM IAA-treated A-CHK1 cells compared to the EtOH-treated controls
Experimental: FIGS. 6A-6E show CHK1 depletion under normal growth conditions in mESCs. FIG. 6A show images of cells assayed for alkaline phosphatase activity. CCE mESCs were infected with pRAIDRS GFP-A or A-CHK1 and selected in the presence of EtOH (“Con”) or auxin (“IAA”). After colonies emerged, cells were assayed for alkaline phosphatase activity. Left, low magnification scans. Right, bright-field microscope images. Scale bars, 100 μm. […] FIG. 6B are graphs showing populations doubling, following selection, of the indicated clones cultured in the presence of 0.01% EtOH (solid lines) or 50 μM IAA (dashed lines). Cells were counted and replated every 3-4 days and population doublings were calculated as Log2 (cell output/cell input). Experiment was conducted once for these clones. […] Cells were collected every 2-3 days and assayed for GFP and mCherry fluorescence by flow cytometry. The percentage of A-CHK1 cells was calculated for each time point and the values for the auxin-treated cells were normalized to those of EtOH-treated cells. An average growth rate decrease of 8% per day was calculated for auxin-treated A-CHK1 cells compared to the EtOH-treated controls. […] In FIG. 6E, the indicated clones were treated with 0.01% EtOH or 50 μM auxin (“IAA”) for 3 days and analyzed for the expression of self-renewal and differentiation markers by QRT-PCR. […]

How did the “average growth rate decrease” value turn out when `O=C(O)Cc1c[nH]c2ccccc12` [auxin, indole-3-acetic acid] was run?
The value was 8 % per day.
